What was measured:
[1] = system: LA cardiomyocytes; test: Sarcomere shortening of LA cardiomyocytes; assay type: cell-based, rat
Procedure: (§1) Ca^2+ measurements and sarcomere shortening. Radiometric Ca^2+ measurements (excitation: 340 nm and 385 nm, emission: 510±10 nm; [Ca^2+] expressed as the ratio R=F340/F380) were performed either with a CytoCypher MultiCell System (CytoCypher BV, Netherlands; FIGS. 1C-F, 2D-G, 4A-F) or an Axiovert 200 microscope (Zeiss, Oberkochen, Germany) fluorescence imaging assembly (FIGS. 2A-C, 2H-J, 3A-E, 6E-I). LA cardiomyocytes were loaded with Fura-2 for 30 min at room temperature, washed twice with Tyrode solution and transferred to the microscope. Experiments were conducted at 37° C. and CaT were recorded at steady state (following electric stimulation).
CaT and sarcomere shortening of LA and LV cardiomyocytes were recorded for 10 s at 3 Hz stimulation. See FIGS. 2D-G, 4A-F. Electric stimulation was turned off and spontaneous SR Ca^2+ release events (See Voigt N, Heijman J, Wang Q, Chiang D Y, Li N, Karck M, Wehrens X H T, Nattel S, Dobrev D: “Cellular and molecular mechanisms of atrial arrhythmogenesis in patients with paroxysmal atrial fibrillation,” Circulation 2014, 129(2):145-156) (SCaEs) immediately recorded for a duration of 10 s (FIG. 1C-F). In a sub-set of LA cells, CaT were recorded for 10 s at 1 Hz stimulation. Electric stimulation was turned off, the cells immediately exposed to 20 mM caffeine and the sub-sequent caffeine-induced CaT recorded for 10 s (FIG. 2A-C, 3A-E). Sodium-calcium exchanger (NCX) activity was calculated as previously described. See Hohendanner F, Walther S, Maxwell J T, Kettlewell S, Awad S, Smith G L, Lonchyna V A, Blatter L A: “Inositol-1,4,5-trisphosphate induced Ca^2+ release and excitation-contraction coupling in atrial myocytes from normal and failing hearts,” J Physiol 2015, 593(6):1459-1477.

[2] = system: LA cardiomyocytes; test: Mitochondrial depolarization (TMRE) in LA cardiomyocytes; assay type: cell-based, rat; conditions: differences between groups
Procedure: Mitochondrial depolarization. LA cardiomyocytes were loaded with TMRE and MitoTracker green, transferred to an LSM 800 laser scanning microscope and kept in Tyrode's solution containing 2 mM Ca^2+ and 10 nM TMRE. Two-dimensional images of TMRE (excitation: 561 nm, emission: 565-585 nm) and MitoTracker green fluorescence (excitation: 488 nm, emission: 505-525 nm) were acquired for a duration of 6 min (interval: 2 s, resolution: 512×512 px, pixel size: 1.25 μm, pixel time: 1.03 μs, laser intensity: 4%). A binary mask of both channels was derived using a Bernsen thresholding algorithm (ImageJ). Positive pixels of the MitoTracker green image were defined as mitochondria and a positive overlay of the TMRE image assumed to indicate a polarized state. The standard deviation of polarized mitochondria over time was taken as a measure of spatiotemporal oscillation.

[3] = rats; 30 mg/kg/day; cited from earlier work
[4] = setting of diabetes; cited from earlier work
[5] = system: LA cardiomyocytes; test: Spontaneous SR Ca2+ release events (SCaEs) of isolated LA cardiomyocytes; assay type: cell-based, rat; conditions: HFpEF LA cardiomyocytes after chronic treatment
Excerpt: Cardiomyocyte isolation. LA and LV cardiomyocytes were isolated using enzymatic digestion as previously described in detail. See Bode D, Guthof T, Pieske B M, Heinzel F R, Hohendanner F: “Isolation of Atrial Cardiomyocytes from a Rat Model of Metabolic Syndrome-related Heart Failure with Preserved Ejection Fraction,” J Vis Exp 2018(137).
Solutions and chemicals. Chemicals were obtained from Sigma-Aldrich (St. Louis, MO, USA) unless noted otherwise. The dual SGLT1/2 inhibitor sotagliflozin was provided by Lexicon Pharmaceuticals (The Woodlands, TX, USA). Fluorescent dyes Fura-2 AM, Rhod-2 AM, MitoTracker red, MitoTracker green, TMRE and H2-DCF were obtained from Thermo Fisher Scientific (Waltham, MA, USA). Tyrode solution contained (in mM): 130 NaCL, 4 KCl, 2 CaCl, 1 MgCl2, 10 Glucose, 10 HEPES; pH adjusted to 7.4 with NaOH. LA cardiomyocytes were plated on laminin-coated glass coverslips. 20 mM caffeine was added to Tyrode solution to induce sarcoplasmic reticulum (SR) Ca^2+ release and obtain a measure of SR Ca^2+ content. […]
as §1, with “LA cardiomyocytes were loaded with Fura-2 for 30 min at room temperature, washed twice with Tyrode solution and transferred to the microscope.” left out
CaT and sarcomere shortening of LA and LV cardiomyocytes were recorded for 10 s at 3 Hz stimulation. See FIGS. 2D-G, 4A-F. Electric stimulation was turned off and spontaneous SR Ca^2+ release events (See Voigt N, Heijman J, Wang Q, Chiang D Y, Li N, Karck M, Wehrens X H T, Nattel S, Dobrev D: “Cellular and molecular mechanisms of atrial arrhythmogenesis in patients with paroxysmal atrial fibrillation,” Circulation 2014, 129(2):145-156) (SCaEs) immediately recorded for a duration of 10 s (FIG. 1C-F). […]

Structure (SMILES): CCOc1ccc(Cc2cc([C@@H]3O[C@H](SC)[C@@H](O)[C@H](O)[C@H]3O)ccc2Cl)cc1 [sotagliflozin, (2S,3R,4R,5S,6R)-2-(4-chloro-3-(4-ethoxybenzyl)phenyl)-6-(methylthio)tetrahydro-2H-pyran-3,4,5-triol]
- shortening of time-to-peak and relaxation time ([1]; HFpEF): this effect could not be observed
- diastolic sarcomere length ([1]; HFpEF, 3 Hz, 5 mM extracellular [Ca2+]): significant increase
- Ca2+ sensitivity ([1]; HFpEF, relationship of CaT and sarcomere shortening): reduced
- sarcomere relaxation time ([1]; WT): shortened
- sarcomere shortening time-to-peak ([1]; WT): shortened
- incidence and spatial distribution of mitochondrial depolarizations [2]: could not be detected
- urinary glucose secretion [3]: near maximal
- effects on blood pressure and body weight [4]: beneficial effects
- amplitude of SCaEs [5]: significantly reduced
- SCaE event frequency ([5]; non-stimulated interval after 3 Hz): remained unaltered
